Measured values from ChEMBL document CHEMBL4507304, “Data for DCP probe TP-021” (2021).

Assays:
[1] = target: Muscle, skeletal receptor tyrosine-protein kinase (Homo sapiens) (UniProt O15146); settings: Compound concentration 1000.0 nM
[2] = target: Tyrosine-protein kinase Yes (Homo sapiens) (UniProt P07947); settings: Compound concentration 1000.0 nM
[3] = target: TGF-beta receptor type-1 (Homo sapiens) (UniProt P36897); settings: Compound concentration 1000.0 nM
[4] = target: Serine/threonine-protein kinase 17A (Homo sapiens) (UniProt Q9UEE5); settings: Compound concentration 1000.0 nM
[5] = target: Misshapen-like kinase 1 (Homo sapiens) (UniProt Q8N4C8); settings: Compound concentration 1000.0 nM
[6] = tested on: Epidermal growth factor receptor (Homo sapiens), P00533 [UNDEFINED MUTATION]; settings: Compound concentration 1000.0 nM
Chain of Epidermal growth factor receptor (Homo sapiens), P00533 [UNDEFINED MUTATION] (P00533 whole entry, looked up, change not shown): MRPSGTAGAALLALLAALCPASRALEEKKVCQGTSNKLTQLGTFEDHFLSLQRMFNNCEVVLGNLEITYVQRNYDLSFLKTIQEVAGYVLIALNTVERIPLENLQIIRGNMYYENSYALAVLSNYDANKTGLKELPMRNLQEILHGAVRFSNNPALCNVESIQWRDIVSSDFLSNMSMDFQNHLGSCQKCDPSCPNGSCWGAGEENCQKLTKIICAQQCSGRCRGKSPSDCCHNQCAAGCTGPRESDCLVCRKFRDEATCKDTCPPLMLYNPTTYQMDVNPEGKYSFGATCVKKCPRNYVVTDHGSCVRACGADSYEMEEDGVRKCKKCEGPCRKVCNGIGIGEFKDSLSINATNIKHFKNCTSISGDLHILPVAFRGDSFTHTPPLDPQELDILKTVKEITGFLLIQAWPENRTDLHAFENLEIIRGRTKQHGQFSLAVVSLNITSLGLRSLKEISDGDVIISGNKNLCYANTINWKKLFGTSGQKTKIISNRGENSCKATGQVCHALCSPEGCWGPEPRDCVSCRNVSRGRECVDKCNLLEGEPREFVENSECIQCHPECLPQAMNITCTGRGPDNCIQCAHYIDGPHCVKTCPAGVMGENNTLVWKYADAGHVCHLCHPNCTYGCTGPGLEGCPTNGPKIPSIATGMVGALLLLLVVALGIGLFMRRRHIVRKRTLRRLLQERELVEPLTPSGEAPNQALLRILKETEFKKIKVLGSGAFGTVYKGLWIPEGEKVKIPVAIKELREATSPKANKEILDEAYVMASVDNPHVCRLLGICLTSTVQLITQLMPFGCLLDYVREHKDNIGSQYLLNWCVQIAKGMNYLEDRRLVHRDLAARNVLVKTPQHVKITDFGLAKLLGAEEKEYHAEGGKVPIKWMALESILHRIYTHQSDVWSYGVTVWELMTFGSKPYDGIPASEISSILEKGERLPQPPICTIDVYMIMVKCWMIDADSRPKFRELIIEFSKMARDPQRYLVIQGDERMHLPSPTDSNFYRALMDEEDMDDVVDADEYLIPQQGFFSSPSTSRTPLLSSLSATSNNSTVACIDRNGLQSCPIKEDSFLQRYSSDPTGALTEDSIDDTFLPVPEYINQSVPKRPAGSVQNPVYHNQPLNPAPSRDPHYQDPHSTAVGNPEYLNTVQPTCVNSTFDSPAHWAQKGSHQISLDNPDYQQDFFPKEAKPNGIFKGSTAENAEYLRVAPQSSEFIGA

[7] = target: Bone morphogenetic protein receptor type-1B (Homo sapiens) (UniProt O00238); settings: Compound concentration 1000.0 nM
[8] = tested on: Epidermal growth factor receptor (Homo sapiens), P00533 [UNDEFINED MUTATION]; settings: Compound concentration 1000.0 nM; remark: listed apart in the source
[9] = target: Calcium-dependent protein kinase 1 (Plasmodium falciparum) (UniProt P62344); settings: Compound concentration 1000.0 nM
[10] = target: Tyrosine-protein kinase CSK (Homo sapiens) (UniProt P41240); settings: Compound concentration 1000.0 nM
[11] = target: MAP kinase-interacting serine/threonine-protein kinase 2 (Homo sapiens) (UniProt Q9HBH9); settings: Compound concentration 1000.0 nM
[12] = target: Phosphatidylinositol 3-kinase catalytic subunit type 3 (Homo sapiens) (UniProt Q8NEB9); settings: Compound concentration 1000.0 nM
[13] = target: Serine/threonine-protein kinase TBK1 (Homo sapiens) (UniProt Q9UHD2); settings: Compound concentration 1000.0 nM
[14] = target: Cyclin-G-associated kinase (Homo sapiens) (UniProt O14976); settings: Compound concentration 1000.0 nM
[15] = target: Serine/threonine-protein kinase Nek2 (Homo sapiens) (UniProt P51955); settings: Compound concentration 1000.0 nM
[16] = target: Serine/threonine-protein kinase tousled-like 2 (Homo sapiens) (UniProt Q86UE8); settings: Compound concentration 1000.0 nM
Chain of Serine/threonine-protein kinase tousled-like 2 (Homo sapiens) (Q86UE8 whole entry, looked up): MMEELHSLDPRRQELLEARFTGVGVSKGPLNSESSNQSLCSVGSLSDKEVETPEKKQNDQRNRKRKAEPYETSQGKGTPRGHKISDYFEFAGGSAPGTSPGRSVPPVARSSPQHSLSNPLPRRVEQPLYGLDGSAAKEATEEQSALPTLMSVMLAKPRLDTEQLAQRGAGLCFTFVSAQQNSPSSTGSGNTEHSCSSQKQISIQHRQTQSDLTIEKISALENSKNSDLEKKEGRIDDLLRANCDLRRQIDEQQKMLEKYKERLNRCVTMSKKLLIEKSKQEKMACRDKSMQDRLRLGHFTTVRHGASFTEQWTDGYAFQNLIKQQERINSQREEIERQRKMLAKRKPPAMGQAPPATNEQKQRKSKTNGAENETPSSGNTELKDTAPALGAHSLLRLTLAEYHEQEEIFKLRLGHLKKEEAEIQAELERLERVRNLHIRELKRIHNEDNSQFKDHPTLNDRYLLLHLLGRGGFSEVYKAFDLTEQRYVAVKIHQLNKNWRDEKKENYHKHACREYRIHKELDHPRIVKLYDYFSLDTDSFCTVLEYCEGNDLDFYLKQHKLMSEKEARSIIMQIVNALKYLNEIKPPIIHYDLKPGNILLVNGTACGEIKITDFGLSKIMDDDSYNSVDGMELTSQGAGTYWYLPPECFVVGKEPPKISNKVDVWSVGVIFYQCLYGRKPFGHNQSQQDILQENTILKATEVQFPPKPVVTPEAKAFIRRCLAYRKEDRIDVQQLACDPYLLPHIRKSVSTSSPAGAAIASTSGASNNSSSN

[17] = target: Tyrosine-protein kinase Fgr (Homo sapiens) (UniProt P09769); settings: Compound concentration 1000.0 nM
[18] = target: Dual specificity protein kinase CLK3 (Homo sapiens) (UniProt P49761); settings: Compound concentration 1000.0 nM
[19] = target: SRSF protein kinase 1 (Homo sapiens) (UniProt Q96SB4); settings: Compound concentration 1000.0 nM
[20] = target: Serine/threonine-protein kinase 4 (Homo sapiens) (UniProt Q13043); settings: Compound concentration 1000.0 nM
[21] = target: Cyclin-dependent kinase 19 (Homo sapiens) (UniProt Q9BWU1); settings: Compound concentration 1000.0 nM
[22] = target: NUAK family SNF1-like kinase 1 (Homo sapiens) (UniProt O60285); settings: Compound concentration 1000.0 nM
[23] = target: Vascular endothelial growth factor receptor 3 (Homo sapiens) (UniProt P35916); settings: Compound concentration 1000.0 nM
[24] = tested on: Tyrosine-protein kinase ABL1 (Homo sapiens), P00519 [F317I]; settings: Compound concentration 1000.0 nM
[25] = tested on: Mast/stem cell growth factor receptor Kit (Homo sapiens), P10721 [V559D]; settings: Compound concentration 1000.0 nM
[26] = target: Mitogen-activated protein kinase kinase kinase 4 (Homo sapiens) (UniProt Q9Y6R4); settings: Compound concentration 1000.0 nM
Chain of Mitogen-activated protein kinase kinase kinase 4 (Homo sapiens) (Q9Y6R4 whole entry): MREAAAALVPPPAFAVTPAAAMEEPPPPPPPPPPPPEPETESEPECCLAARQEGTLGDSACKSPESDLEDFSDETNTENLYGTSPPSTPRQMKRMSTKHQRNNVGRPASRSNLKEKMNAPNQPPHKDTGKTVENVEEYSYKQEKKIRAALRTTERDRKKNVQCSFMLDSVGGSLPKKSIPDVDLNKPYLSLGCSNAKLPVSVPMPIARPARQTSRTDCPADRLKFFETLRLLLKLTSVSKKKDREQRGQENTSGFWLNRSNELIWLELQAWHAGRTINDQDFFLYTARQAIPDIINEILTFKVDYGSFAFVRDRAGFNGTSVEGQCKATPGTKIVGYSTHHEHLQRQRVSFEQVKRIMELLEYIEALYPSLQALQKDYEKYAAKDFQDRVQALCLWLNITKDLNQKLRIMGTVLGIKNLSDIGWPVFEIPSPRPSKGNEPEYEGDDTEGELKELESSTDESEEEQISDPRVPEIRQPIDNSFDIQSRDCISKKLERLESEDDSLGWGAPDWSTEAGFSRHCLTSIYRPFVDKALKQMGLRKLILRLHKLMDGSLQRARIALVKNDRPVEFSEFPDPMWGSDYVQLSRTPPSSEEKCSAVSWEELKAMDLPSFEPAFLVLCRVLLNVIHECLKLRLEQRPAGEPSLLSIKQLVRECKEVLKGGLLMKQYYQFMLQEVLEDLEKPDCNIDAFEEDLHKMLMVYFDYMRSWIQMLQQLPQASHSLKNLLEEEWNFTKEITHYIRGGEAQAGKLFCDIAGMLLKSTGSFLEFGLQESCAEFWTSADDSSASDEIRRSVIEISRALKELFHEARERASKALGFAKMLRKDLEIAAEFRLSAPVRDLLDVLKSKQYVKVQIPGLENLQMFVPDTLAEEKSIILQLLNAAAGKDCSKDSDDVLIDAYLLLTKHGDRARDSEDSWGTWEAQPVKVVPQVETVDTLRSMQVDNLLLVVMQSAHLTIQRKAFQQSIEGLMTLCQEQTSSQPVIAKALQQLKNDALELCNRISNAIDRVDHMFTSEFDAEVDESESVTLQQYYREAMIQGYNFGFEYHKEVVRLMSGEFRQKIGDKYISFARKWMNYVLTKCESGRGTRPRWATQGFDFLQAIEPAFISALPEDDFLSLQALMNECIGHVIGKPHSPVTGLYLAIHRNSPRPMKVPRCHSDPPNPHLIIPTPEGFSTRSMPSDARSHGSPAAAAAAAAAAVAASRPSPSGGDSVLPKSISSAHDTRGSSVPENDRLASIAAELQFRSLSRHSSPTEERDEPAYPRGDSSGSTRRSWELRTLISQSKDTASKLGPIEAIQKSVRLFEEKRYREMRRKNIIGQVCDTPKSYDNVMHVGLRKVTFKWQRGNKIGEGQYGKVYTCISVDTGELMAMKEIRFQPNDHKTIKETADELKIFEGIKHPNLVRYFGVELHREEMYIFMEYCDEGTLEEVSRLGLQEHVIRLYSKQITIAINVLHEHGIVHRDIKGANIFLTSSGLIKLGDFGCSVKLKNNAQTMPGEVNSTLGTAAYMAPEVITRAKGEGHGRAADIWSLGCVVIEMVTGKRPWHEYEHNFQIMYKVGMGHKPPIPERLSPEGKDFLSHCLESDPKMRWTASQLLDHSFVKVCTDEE

[27] = target: cGMP-dependent protein kinase 1 (Homo sapiens) (UniProt Q13976); settings: Compound concentration 1000.0 nM
[28] = target: 5-hydroxytryptamine receptor 6 (Homo sapiens) (UniProt P50406); settings: Compound concentration 10.0 uM
[29] = target: Serine/threonine-protein kinase PAK 5 (Homo sapiens) (UniProt Q9P286); settings: Compound concentration 1000.0 nM
[30] = target: Leucine-rich repeat serine/threonine-protein kinase 2 (Homo sapiens) (UniProt Q5S007); settings: Compound concentration 1000.0 nM
[31] = target: Casein kinase II subunit alpha (Homo sapiens) (UniProt P68400); settings: Compound concentration 1000.0 nM
Chain of Casein kinase II subunit alpha (Homo sapiens) (P68400 whole entry, looked up): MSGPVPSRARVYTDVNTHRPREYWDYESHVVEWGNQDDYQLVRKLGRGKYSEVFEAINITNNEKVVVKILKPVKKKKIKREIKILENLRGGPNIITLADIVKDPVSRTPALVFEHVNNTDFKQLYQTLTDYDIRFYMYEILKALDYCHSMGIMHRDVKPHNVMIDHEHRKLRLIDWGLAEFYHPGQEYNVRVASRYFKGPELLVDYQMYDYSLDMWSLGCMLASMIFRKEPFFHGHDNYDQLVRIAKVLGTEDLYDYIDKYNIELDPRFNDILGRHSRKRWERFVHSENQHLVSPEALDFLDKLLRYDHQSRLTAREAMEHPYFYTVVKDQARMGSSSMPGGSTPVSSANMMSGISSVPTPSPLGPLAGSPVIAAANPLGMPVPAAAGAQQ

[32] = target: Tyrosine-protein kinase TXK (Homo sapiens) (UniProt P42681); settings: Compound concentration 1000.0 nM
[33] = target: Histamine H2 receptor (Homo sapiens) (UniProt P25021); settings: Compound concentration 10.0 uM
[34] = target: TRAF2 and NCK-interacting protein kinase (Homo sapiens) (UniProt Q9UKE5); settings: Compound concentration 1000.0 nM
[35] = target: Discoidin domain-containing receptor 2 (Homo sapiens) (UniProt Q16832); settings: Compound concentration 1000.0 nM
[36] = target: Calcium/calmodulin-dependent protein kinase type II subunit delta (Homo sapiens) (UniProt Q13557); settings: Compound concentration 1000.0 nM
[37] = target: Tyrosine-protein kinase JAK1 (Homo sapiens) (UniProt P23458); settings: Compound concentration 1000.0 nM
[38] = target: Serine/threonine-protein kinase pim-1 (Homo sapiens) (UniProt P11309); settings: Compound concentration 1000.0 nM
Chain of Serine/threonine-protein kinase pim-1 (Homo sapiens) (P11309 whole entry, looked up): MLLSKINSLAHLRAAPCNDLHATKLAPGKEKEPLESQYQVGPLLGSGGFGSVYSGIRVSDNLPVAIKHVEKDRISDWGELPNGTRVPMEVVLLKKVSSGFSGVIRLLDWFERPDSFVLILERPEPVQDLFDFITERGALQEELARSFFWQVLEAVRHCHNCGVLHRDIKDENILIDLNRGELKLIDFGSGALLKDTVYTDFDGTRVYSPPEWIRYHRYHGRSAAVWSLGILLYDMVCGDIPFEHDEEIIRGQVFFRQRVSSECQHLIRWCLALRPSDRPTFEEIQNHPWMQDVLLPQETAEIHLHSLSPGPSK

[39] = target: Serine/threonine-protein kinase SIK3 (Homo sapiens) (UniProt Q9Y2K2); settings: Compound concentration 1000.0 nM
[40] = target: Ephrin type-A receptor 4 (Homo sapiens) (UniProt P54764); settings: Compound concentration 1000.0 nM
[41] = target: 5'-AMP-activated protein kinase catalytic subunit alpha-2 (Homo sapiens) (UniProt P54646); settings: Compound concentration 1000.0 nM
[42] = tested on: Hepatocyte growth factor receptor (Homo sapiens), P08581 [M1250T]; settings: Compound concentration 1000.0 nM
[43] = target: Ephrin type-A receptor 1 (Homo sapiens) (UniProt P21709); settings: Compound concentration 1000.0 nM
[44] = target: Inhibitor of nuclear factor kappa-B kinase subunit epsilon (Homo sapiens) (UniProt Q14164); settings: Compound concentration 1000.0 nM
[45] = target: Ribosomal protein S6 kinase alpha-5 (Homo sapiens) (UniProt O75582); settings: Compound concentration 1000.0 nM

Chain of Tyrosine-protein kinase Yes (Homo sapiens) (P07947 2-543 limits assumed): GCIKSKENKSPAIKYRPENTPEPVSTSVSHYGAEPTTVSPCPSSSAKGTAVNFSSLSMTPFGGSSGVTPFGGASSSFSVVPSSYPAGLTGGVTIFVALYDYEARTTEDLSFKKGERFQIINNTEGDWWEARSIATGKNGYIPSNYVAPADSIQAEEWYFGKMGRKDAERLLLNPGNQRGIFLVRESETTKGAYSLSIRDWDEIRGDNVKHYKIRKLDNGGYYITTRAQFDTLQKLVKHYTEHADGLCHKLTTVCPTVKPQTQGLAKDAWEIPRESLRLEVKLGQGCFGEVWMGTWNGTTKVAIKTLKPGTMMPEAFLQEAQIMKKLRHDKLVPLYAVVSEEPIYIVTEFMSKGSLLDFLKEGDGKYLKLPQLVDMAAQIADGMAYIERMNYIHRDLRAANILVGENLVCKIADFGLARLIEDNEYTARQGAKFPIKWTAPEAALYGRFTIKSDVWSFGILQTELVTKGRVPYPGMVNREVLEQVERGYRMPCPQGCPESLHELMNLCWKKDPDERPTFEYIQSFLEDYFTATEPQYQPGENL

N#Cc1ccc(Nc2ccc3[nH]c(=O)[nH]c3c2)c(Cl)c1
inactive: residual activity [1] 100% | residual activity [2] 100% | residual activity [3] 100% | residual activity [4] 94% | residual activity [5] 91% | residual activity [6] 62% | residual activity [7] 100% | residual activity [8] 100% | residual activity [9] 99% | residual activity [10] 89% | residual activity [11] 100% | residual activity [12] 100% | residual activity [13] 100% | residual activity [14] 100% | residual activity [15] 93% | residual activity [16] 96% | residual activity [17] 100% | residual activity [18] 96% | residual activity [19] 95% | residual activity [20] 100% | residual activity [21] 77% | residual activity [22] 100% | residual activity [23] 100% | residual activity [24] 92% | residual activity [25] 100% | residual activity [26] 95% | residual activity [27] 80% | inhibition [28] -1.18% | residual activity [29] 100% | residual activity [30] 96% | residual activity [31] 80% | residual activity [32] 87% | inhibition [33] 2.26% | residual activity [34] 99% | residual activity [35] 100% | residual activity [36] 100% | residual activity [37] 97% | residual activity [38] 90% | residual activity [39] 75% | residual activity [40] 100% | residual activity [41] 81% | residual activity [42] 100% | residual activity [43] 91% | residual activity [44] 100% | residual activity [45] 100%

O=C1CCc2cc(Nc3cc(OC4CCOCC4)c([N+](=O)[O-])cc3Cl)ccc2N1
inactive: residual activity [1] 100% | residual activity [2] 96% | residual activity [3] 100% | residual activity [4] 95% | residual activity [5] 83% | residual activity [6] 65% | residual activity [7] 87% | residual activity [8] 100% | residual activity [9] 100% | residual activity [10] 98% | residual activity [11] 98% | residual activity [12] 100% | residual activity [13] 100% | residual activity [14] 100% | residual activity [15] 95% | residual activity [16] 81% | residual activity [17] 100% | residual activity [18] 100% | residual activity [19] 73% | residual activity [20] 100% | residual activity [21] 72% | residual activity [22] 100% | residual activity [23] 97% | residual activity [24] 100% | residual activity [25] 100% | residual activity [26] 85% | residual activity [27] 89% | inhibition [28] -2.48% | residual activity [29] 100% | residual activity [30] 72% | residual activity [31] 84% | residual activity [32] 79% | inhibition [33] 20.6% | residual activity [34] 100% | residual activity [35] 100% | residual activity [36] 100% | residual activity [37] 100% | residual activity [38] 96% | residual activity [39] 75% | residual activity [40] 84% | residual activity [41] 100% | residual activity [42] 93% | residual activity [43] 81% | residual activity [44] 90% | residual activity [45] 100%
